System: mean arterial pressure
Assay: Rise in mean arterial pressure after cysteine dosing
Conditions: 100 mg/kg

N[C@H](CS)C(=O)O [D-cysteine]
rise in mean arterial pressure compared with L-cysteine: less of a rise in mean arterial pressure than L-cysteine

Reference: patent publication US9156826B2, “Asymmetrical reversible neuromuscular blocking agents of ultra-short, short, or intermediate duration” (Cornell University, priority 2012, dated 2015)
